Assays:
[1] = analgesic activity, acetic acid-induced writhing; format: in vivo, mouse (albino male); conditions: mouse, p.o., dose reducing writhing frequency by 50%; 30, 90, 180 minutes after administration
Protocol: Representative compounds were also evaluated for analgesic activity. The evaluation was conducted by using acetic acid-induced writhing in mice as the pain model. Clinically effective analgesis are effective when tested in this model: see Koster et al., "Acetic Acid for Analgesic Screening," 18 Fed. Proc. 412 (1959).
In a method similar to that reported by Koster et al., standard strain albino male mice weighing 20-22 grams were fasted overnight. The respective compound or vehicle (as control) was administered by gastric lavage (p.o.). Each compound was administered in an aqueous suspension of 1% methylcellulose in water. […] At 30, 90, and 180 minutes after administration, writhing was induced by the intraperitoneal administration of 55 mg./kg. of acetic acid (0.55%). Each treatment group consisted of 5 mice and separate groups were examined at each observation time. The total number of writhes for the treatment group were counted in a 10-minute observation period starting 5 minutes after the acetic acid administration. The treatment totals were compared to controls and a percent inhibition calculated as follows: [formula] […] An ED50, which represented the dose that would reduce the writhing frequency by 50%, was estimated from a dose-reponse curve of three or more points. A dose range was reported if only two points were availale for the dose response curve and they bracketed the 50% level. If data was available at 100 mg./kg., only, then the estimated ED50 was reported simply as less than 100 (<100).

[2] = carrageenin-induced hind paw inflammation; format: in vivo; conditions: Rattus norvegicus
Protocol: Representative compounds were also evaluated for anti-inflammatory activity in the test method described by C. A. Winter at 111 Proc. Soc. Exp. Biol. Med., 544 (1962). In this method, inflammation is created by injecting carrageenin into the hind paw of rats. Test compounds are administered prior to injection to determine percent inhibition of the subsequent inflammation, in comparison with control animals.

[3] = ultraviolet-induced erythema blocking test, oral (modified Winder method); format: in vivo, guinea pig (male albino); conditions: Cavia porcellus, guinea pig, weighted scores 1.0-2.5 h after UV, dose which provides 50% inhibition
Protocol: The compounds of the present invention were evaluated for anti-inflammatoryactivity by the ultraviolet-induced erythema blocking test. The test procedures were a modification of the Winder method (Winder, C. V.; Wax, J.; Burr, V.; Been, M.; and Posiere, C. E.: A Study of Pharmacological Influences on Ultraviolet Erythema in Guinea Pigs. Arch. Int. Pharmacodyn. 116: 261, 1958). Male albino guinea pigs weighing 240-300 gm. were used. The hair on the back was clipped and chemically depilated 15-18 hours before each experiment. The animals were fasted overnight, and on the day of the experiment, were randomized and placed in clear plastic partitioned holders 10×20 cm. wide and 15 cm. high.
The compounds to be tested were suspended in 1% methyl cellulose in water, utilizing a tissue homogenizer. The suspensions were administered orally in a volume of 2.0 ml./kg. of body weight. Control animals received an equal amount of the vehicle.
The source of ultraviolet light was a Hanovia lamp (Kromayer-Model 10). A notebook reinforcement ring was placed upon the lens of the lamp to provide an area of contrast for grading purposes. The lens was then placed in contact with the skin of the guinea pig's back. Exposure time to UV was for a period of 4 seconds. Beginning one hour after exposure and thereafter at half-hour intervals for another 11/2 hours, the degree of resulting erythema was graded by an arbitrary scoring system based upon the degree of contrast and redness formed. Anti-inflammatory agents delay the development of the erythema and have their greatest effect at the initial grading periods. The scores were, therefore, weighted by factors of 4, 3, 2, and 1 at the 1.0, 1.5, 2.0, and 2.5 hour scoring times, respectively. The erythema was graded as follows:
Total scores from each treatment group of four guinea pigs were compared to the scores of the control group. The percent inhibition was calculated as follows: [formula] In the case of compounds showing inhibition, retesting was carried out at a plurality of doses to enable calculation of an ED50 for each such compound. "ED50 " designates that dose which provides 50% inhibition. Calculation of the ED50 was either by a standard linear regression method or by estimation from a dose-response curve of three or more points. The compounds so tested and their ED50 s were as follows: […]

[4] = adjuvant-induced arthritis test (paw volume); format: in vivo, rat (male albino); conditions: rat, oral

| Molecule | Estimated ED50 [1] | ED50 [3] | inhibition in vivo at 50 mg/kg [2] | inhibition in vivo at 10 mg/kg [2] | other results |
| --- | --- | --- | --- | --- | --- |
| C#Cc1ccc(-c2cc(F)ccc2F)cc1 [(4-(2,5-difluorophenyl)phenyl)acetylene, (4-(2,5-Difluorophenyl)phenyl)acetylene] | 10 mg/kg | 4.4 mg/kg | – | – | inhibition in vivo at 25 mg/kg [2]: 43% |
| C#Cc1ccc(-c2ccccc2Cl)cc1 [(4-(2-chlorophenyl)phenyl)acetylene, (4-(2-Chlorophenyl)phenyl)acetylene] | 20 to 100 mg/kg | 0.8 mg/kg | 52% | – | – |
| C#Cc1ccc(-c2ccccc2)c(OC)c1 [(3-methoxy-4-phenylphenyl)acetylene, (3-Methoxy-4-phenylphenyl)acetylene] | – | 0.6 mg/kg | – | – | – |
| C#Cc1ccc(Oc2ccccc2)cc1C [(2-methyl-4-phenoxyphenyl)acetylene, (2-Methyl-4-phenoxyphenyl)acetylene] | < 100 mg/kg | 8 mg/kg | – | – | inhibition in vivo at 25 mg/kg [2]: 33% |
| C#Cc1cccc(Oc2ccccc2F)c1 [(3-(2-fluorophenoxy)phenyl)acetylene, (3-(2-Fluorophenoxy)phenyl)acetylene] | – | 12 mg/kg | 32% | – | – |
| (2-(2,5-difluorophenyl)phenyl)acetylene | – | – | – | – | Percent Inhibition of Volume Increase, Day 7 ([4]; dose 25 (unit not given)): 38%; Percent Inhibition of Volume Increase, Day 14 ([4]; dose 25 (unit not given)): 15% |
| C#Cc1ccc(-c2ccc(F)cc2F)cc1 [(4-(2,4-difluorophenyl)phenyl)acetylene, (4-(2,4-Difluorophenyl)phenyl)acetylene] | 4 mg/kg | 4 mg/kg | – | – | inhibition in vivo at 25 mg/kg [2]: 31% |
| C#Cc1cccc(Oc2ccccc2)c1 [(3-phenoxyphenyl)acetylene, (3-Phenoxyphenyl)acetylene] | < 100 mg/kg | 13 mg/kg | – | 7% | – |
| C#Cc1ccc(-c2ccccc2)c(Cl)c1 [(3-chloro-4-phenylphenyl)acetylene, (3-Chloro-4-phenylphenyl)acetylene] | 30 mg/kg | 0.033 mg/kg | – | 62% | inhibition in vivo at 0.3 mg/kg ([2]; 0.3 mg./kg.): 23%; inhibition in vivo at 3 mg/kg [2]: 41%; Percent Inhibition of Volume Increase, Day 7 ([4]; dose 0.1 (unit not given)): 21%; Percent Inhibition of Volume Increase, Day 14 ([4]; dose 0.1 (unit not given)): 36%; Percent Inhibition of Volume Increase, Day 7 ([4]; dose 0.3 (unit not given)): 56%; Percent Inhibition of Volume Increase, Day 14 ([4]; dose 0.3 (unit not given)): 50%; Percent Inhibition of Volume Increase, Day 7 ([4]; dose 1 (unit not given)): 34%; Percent Inhibition of Volume Increase, Day 14 ([4]; dose 1 (unit not given)): 41%; Percent Inhibition of Volume Increase, Day 7 ([4]; dose 3 (unit not given)): 30%; Percent Inhibition of Volume Increase, Day 14 ([4]; dose 3 (unit not given)): 45% |
| C#Cc1ccc(-c2c(F)cccc2F)cc1 [(4-(2,6-difluorophenyl)phenyl)acetylene, (4-(2,6-Difluorophenyl)phenyl)acetylene] | < 100 mg/kg | 12 mg/kg | 49% | 34% | inhibition in vivo at 3 mg/kg [2]: 7%; inhibition in vivo at 30 mg/kg [2]: 37% |
| C#Cc1ccc(-c2ccccc2)c(F)c1 [(3-fluoro-4-phenylphenyl)acetylene, (3-Fluoro-4-phenylphenyl)acetylene] | 10 mg/kg | 0.5 mg/kg | – | – | – |
| C#Cc1ccc(-c2ccccc2)c(C)c1 [(3-methyl-4-phenylphenyl)acetylene, (3-Methyl-4-phenylphenyl)acetylene] | 50 mg/kg | 0.09 mg/kg | 66% | 56% | inhibition in vivo at 3 mg/kg [2]: 37%; inhibition in vivo at 30 mg/kg [2]: 56% |
| C#Cc1ccc(-c2ccccc2C)cc1 [(4-(o-tolyl)phenyl)acetylene, (4-(o-Tolyl)phenyl)acetylene] | 35 mg/kg | 0.9 mg/kg | 48% | 6% | inhibition in vivo at 3 mg/kg [2]: 16%; inhibition in vivo at 30 mg/kg [2]: 53% |
| C#Cc1ccc(Oc2ccccc2F)cc1 [(4-(2-fluorophenoxy)phenyl)acetylene, (4-(2-Fluorophenoxy)phenyl)acetylene] | < 100 mg/kg | 16.5 mg/kg | – | 45% | inhibition in vivo at 3 mg/kg [2]: 28%; inhibition in vivo at 30 mg/kg [2]: 68% |
| C#Cc1ccc(C2CCCCC2)c(Cl)c1 [(3-chloro-4-cyclohexylphenyl)acetylene, (3-Chloro-4-cyclohexylphenyl)acetylene] | < 100 mg/kg | 1 mg/kg | – | – | – |
| C#Cc1ccc(F)c(-c2ccccc2F)c1 [(4-Fluoro-3-(2-fluorophenyl)phenyl)acetylene] | – | 23 mg/kg | 45% | 23% | inhibition in vivo at 3 mg/kg [2]: 13%; inhibition in vivo at 30 mg/kg [2]: 43% |
| C#Cc1ccc(OCCCC)cc1C [(2-methyl-4-n-butoxyphenyl)acetylene, (2-Methyl-4-n-butoxyphenyl)acetylene] | – | 35 mg/kg | – | – | inhibition in vivo at 25 mg/kg [2]: 9% |
| C#Cc1cccc(-c2ccccc2)c1 [3-biphenylylacetylene, 3-Biphenylylacetylene] | 50 to 100 mg/kg | 7 mg/kg | 32% | – | – |
| C#Cc1cc(C)c(Oc2ccccc2)c(C)c1 [(3,5-dimethyl-4-phenoxyphenyl)acetylene, (3,5-Dimethyl-4-phenoxyphenyl)acetylene] | < 100 mg/kg | 11 mg/kg | 29% | – | – |
| C#Cc1ccc(-c2cccc(F)c2)cc1 [(4-(3-fluorophenyl)phenyl)acetylene, (4-(3-Fluorophenyl)phenyl)acetylene] | 35 mg/kg | 3 mg/kg | – | 17% | – |
| C#Cc1ccc(Oc2ccccc2)c(C)c1 [(3-methyl-4-phenoxyphenyl)acetylene, (3-Methyl-4-phenoxyphenyl)acetylene] | < 100 mg/kg | 10 mg/kg | – | 16% | – |
| C#Cc1ccc(-c2ccccc2)cc1C [(2-methyl-4-phenylphenyl)acetylene] | 60 mg/kg | 20 mg/kg | – | – | – |
| C#Cc1ccc(-c2ccccc2)cc1OC [(2-methoxy-4-phenylphenyl)acetylene, (2-Methoxy-4-phenylphenyl)acetylene] | – | 39 mg/kg | 51% | 7% | inhibition in vivo at 1 mg/kg ([2]; 1 mg./kg.): 25% |
